Laboratory results from patent US20180134788A1, “Methods and Pharmaceutical Compositions (NTSR1 Inhibitors) for the Treatment of Hepatocellular Carcinomas” (INSERM (Institut National de la Sante et de la Recherche …, priority 2015, published 2018).

Legend:
[1] = system: HEP-R1a tumors; assay: HEP-R1a experimental tumor growth in mice; type: in vivo
Procedure: (§1) (A) Experimental tumors were generated from the HCC cancer cell line, HEP 3B and PLC/RF5 and the NTSR1-overexpressing subclones. Comparative growth curves of HEP 3B, HEP-R1a, PLC/RF5, PLC/R1 in 8, 7, 10 and 7 mice, respectively. Tumor volumes were measured twice a week. (B) Tumor weight at 42 days. (C and D) Experimental tumors were generated from HEP 3B or HEP-R1a in the different mice. When the tumor size reached 100 mm3, mice were randomly distributed in 2 groups. A control group force feed with H2O, or with 1 mg/kg SR 48692 every day. (E) Typical IHC performed on paraffin sections for NTS, NTSR1 EGFR and phosphorylated EGFR labelling, 200× magnification.
(§2) Experimental tumors were generated from HEP 3B (A) and HEP-R1a (B) in the same mice. Mice were treated per os with 75 mg/kg erlotinib every day for 22 days. Tumor size was measured every two days. Result shown is the ratio of tumor compare to day 1. (C) The doubling time was subsequently calculated using the following formula: doubling time=t*((LN(2))/(LN(VOL F/VOL I)), at day 22.
(§3) Experimental tumors were generated from HEP 3B (D) or HEP-R1a (E) in the different mice. When the tumor size reached 100 mm^3, mice were randomly distributed in 2 groups. A control group force feed with H2O, and the treated group, force feed every day with […] sorafenib. Result shown is the ratio of tumor compare to day 1. (F) Tumor weight at day 15.
(§4) To determine the contribution of NTS/NTSR1 complex on tumor progression, mice were implanted with HCC cell lines and NTSR1 overexpressing clones. For HEP3B cells the tumors were measurable 21 days after cells injection. In contrast, the tumor burden for both clones overexpressing NTSR1 was measurable at day 13. The growth rate at day 42 was 2.9 and 2.08 fold higher for HEP-R1a and PLC-R1a as compared to respective parental cells, respectively, (FIG. 7A). As shown in FIG. 7B the tumor weights were in correspondence with the tumor size 4.3 and 2.8 fold higher for HEP-R1a and PLC-R1a as compared to their respective parental cells, respectively. To confirm the contribution of NTS/NSTR1 complex in tumor growth, animals were treated with a specific NTSR1 antagonist, the SR 48692. When tumors reach 100 mm3, the groups were treated per os with H2O, or 1 mg/kg SR 48692, respectively. […] The final tumor size of HEP-R1a tumors treated with SR 48692 was 441.9±39.85 mm^3, and was very similar to the untreated HEP 3B tumors 516.3±139.72 mm^3.
(§5) As shown above, NTSR1 activation induced a sustained EGFR activation, which we believe, acts as EGFR driver mutation (FIG. 4). To explore this hypothesis, the HCC cell lines HEP 3B and HEP-R1a were xenografted on the same mice. The mice were randomly distributed in two groups based on the size of the HEP 3B tumors. Since HEP-R1a tumors grow faster than HEP 3B tumors, HEP 3B cells were injected a few days before HEP-R1a cells. In the control group, the average HEP3B tumor size was 168.2±38.1 mm3 and the HEP-R1a tumor size was 79.7±16.4 mm3 at day 1. The treated group carried HEP 3B tumors of 164.7±31.2 mm3 and HEP-R1a tumors of 87.2±19.13 mm3 at day 1. Mice were daily treated, per os, with 75 mg/kg erlotinib or H2O for 22 days. […] Over the period of the treatment, the doubling time of HEP-R1a tumors was 7.0±0.55 days and 10.1±1.1 (p=0.0016) for control and treated with erlotinib, respectively. For the HEP 3B tumors, the doubling time was similar 7.8±0.52 and 7.7±0.84 days for control and treated group respectively (FIG. 8 C).
Sorafenib is a known multikinase inhibitor targeting Raf/MEK/ERK signaling at the level of Raf kinase, angiogenesis, VEGFR-2/-3, and PDGFR-β tyrosine kinase. Sorafenib is currently used to treat HCC with some success. In order to evaluate the autocrine NTS regulation on sorafenib responses, each HEP 3B or HEP-R1a cells were injected to four groups of mice. When tumors reach 100 mm3, the groups were treated per os with H2O, 30 mg/kg sorafenib for 15 days, respectively. […]

[2] = system: HEP 3B tumors; assay: HEP 3B experimental tumor growth in mice; type: in vivo
Procedure: as §1, §2, §3, §4
as §5, with “C). […]” for “C).”

[3] = system: cells overexpressing NTSR1 versus HEP 3B cells; assay: Cellular proliferation test; type: cell-based; conditions: cells overexpressing NTSR1 compared with HEP 3B cells
Procedure: (§6) (A) Cellular proliferation performed on HEP 3B and HEP-R1b cells. Results are the means of 3 independents experiments and expressed as percentage of respective control. (B) Clonogenic assay performed with HEP 3B and HEP-R1b cells treated with different dose of erlotinib. Cells were incubated for two weeks with the treatment. Results are the means of 6 independents experiments and expressed as percentage of respective control. (C) Cellular proliferation performed on HEP 3B and HEP-R1a cells. Results are the means of 6 independents experiments. (D) Clonogenic assay performed with HEP 3B and HEP-R1a cells treated with different dose of sorafenib. Cells were incubated for two weeks with the treatment. Results are the means of 6 independents experiments.
(§7) We confirmed the erlotinib and sorafenib responses in cells overexpressing NTSR1 in clonogenic assay. […] In contrast, HEP 3B cells are not sensitive either to erlotinib or sorafenib.

[4] = system: HEP 3B cells; assay: Clonogenic assay, HEP 3B cells; type: cell-based; conditions: two weeks
Procedure: as §6, §7

[5] = system: HEP-R1b and HEP-R1a cells; assay: Clonogenic assay, NTSR1 overexpressing clones; type: cell-based; conditions: two weeks
Procedure: as §6, §7

[6] = system: NTSR1 transcription in HuH7, HEP 3B and PLC/PRF5 cells; assay: NTSR1 transcript analysis in HCC cell lines; type: cell-based; conditions: three HCC cell lines, 20 nM LiCl for 6 h
Procedure: (§8) (A) NTS, NTSR2, NTSR3, and NTSR1 transcript analysis from 400 ng of HuH7, HEP 3B, and PLC/RF5, total RNA. NTSR1 A and NTSR1 B show the amplicon from two different set of primers. (B) Typical immunocytochemistry labeling for NTSR1 and DAPI in HEP 3B and PLC/RF5 cells. Cells were seeded on glass slides, grown for 48 h, and immunocytochemistry was performed as described in the Materials and Methods section. (C) NTSR1 transcript analysis from HuH7, HEP 3B and PLC/RF5 of total RNA from cells treated or not with […] LiCl for 6 h. (D) Typical immunocytochemistry NTSR1 labeling of HEP 3B and PLC/RF5 cells treated with 1 μM SB 216763 for 6 h.
(§9) Among the three cell lines studied, only PLC/PRF5 cells presented a dysregulation in the beta catenin pathway with a deletion in Axin (E4/−). […] We previously hypothesized that NTSR1 expression was correlated with deregulated wnt/beta catenin pathways. To evaluate this hypothesis, we forced the cellular and nuclear relocation of β-catenin in these cells lines with the LiCl, and an inhibitor of the glycogen synthase kinase (GSK) 3β, the SB216763. LiCl and SB216763 are known to decrease the degradation of β-catenin by inhibiting GSK-3 and promoting the accumulation of β-catenin in the cytoplasm of liver cancer cells.

[7] = system: EGFR expression in PLC/PRF5 and HEP3B cells; assay: EGFR immunocytochemistry labeling in HCC cell lines; type: cell-based; conditions: for EGFR expression: PLC/PRF5 and HEP3B, 48 h, 1 μM SB216763 or 5 μM SR48692
Procedure: (§10) (A) Typical immunocytochemistry labeling for NTSR1 (Top) and EGFR (Bottom) in PLC/RF5 and HEP 3B cells treated or not with 1 μM SB216763 or 5 μM SR4892 or both for 48 h. (B and C) Representative western blot analyses of Tyr 1173 phosphorylated EGFR, EGFR, and actin of HEP 3B and PLC/RF5 treated as indicate above.
(§11) It was previously shown that the NTS/NTSR1 complex potentiates EGF signaling in liver, colon, prostate, lung, and breast cancer. We investigated the possible relation between NTSR1 expression and EGFR expression and activation. […] Treatment with SR48692, a specific NTSR1 antagonist, decreased the expression of EGFR, whereas NTSR1 expression was not altered. When the combined treatment with SB216763 and SR48692 is used, the effect of SB216763 on EFGR expression is limited by the presence of the NTSR1 antagonist (FIG. 5A).

[8] = system: NTSR1 expression in HEP 3B and PLC/PRF5 cells; assay: NTSR1 immunocytochemistry labeling in HCC cell lines; type: cell-based; conditions: for NTSR1 expression: PLC/PRF5 and HEP3B, 48 h, 1 μM SB216763 or 5 μM SR48692
Procedure: as §8, §10, §9, §11

[9] = system: phosphorylated-EGFR in HEP 3B and PLC/RF5 cells; assay: Western blot of Tyr 1173 phosphorylated EGFR in HCC cell lines; type: cell-based; conditions: both cell lines
Procedure: as §10
In both cell lines, phosphorylated-EGFR was increased under SB216763 treatment this increase was abolished when SR 48692 was added to the treatment.

[10] = system: advanced HCC; conditions: patients with advanced HCC and well-compensated liver function, oral; cited from earlier work
[11] = system: HEP3B cells with upregulated NTSR1 (HEP-R1a, HEP-R1b); assay: Boyden chamber invasion on type-I collagen-coated inserts; type: cell-based; conditions: HEP3B NTSR1 clones, 36 hours, 5 μM SR 48692 or antibodies
Procedure: (§12) (A) Speed of migration on type 1 collagen of HEP 3B and NTSR1 overexpressing clones treated or not with 1/100 NTS or 1/100 Long Fragment NTS antibody. Results represent the mean±SEM of 5 independent experiments. (B) Speed of migration on type 1 collagen of PLC/RF5 and NTSR1 overexpressing clones in the presence or not of 5 μM SR 48692. Results represent the mean±SEM of 3 independent experiments. (C) Numbers of invasive cells crossing the type I collagen in Boyden chamber when HEP 3B and NTSR1 overexpressing clones were treated or not with NTS or Long Fragment NTS antibody or 5 μM. SR 48692. Results are expressed relatively to wild type cells and represent the mean±SEM of 5 to 7 independent experiments.
In parallel, Boyden chambers were used to examine the invasiveness characteristics of HCC cancer cells, on type-I collagen-coated inserts over 36 hours incubation. Compared with HEP 3B cells, the number of invading cancer cells for HEP-R1a cells and HEP-R1b cells is increased by 211±19% (p<0.01) and 617±94% (p<0.01), respectively. To determine whether NTS contributes to cellular invasion, cells were exposed to the NTSR1 antagonist, or two antibodies directed against NTS or the long fragment NTS. […] In our hands, the PLC/PRF5 cells were very invasive.

[12] = system: PLC-R1a and PLC-R2a cells; assay: Migration assay on type 1 collagen, PLC/PRF5 NTSR1 overexpressing clones; type: cell-based; conditions: 5 μM SR 48692, vs DMSO
Procedure: as §12
Migration assays were used to evaluate the effect of NTS/NTSR1 on cancer cell migration, another hallmark contributing to the invasion and metastasis of cancers. The procedure described in the methods section allows the comparison of the migration speed between both cell lines at the same time over a period of 48 h, and on the intact type I collagen matrix. […] Similar observations were made with PLC/PRF5 cells and derivative clones.

[13] = 30 mg/kg sorafenib per os, 15 days

Compound: C#Cc1cccc(Nc2ncnc3cc(OCCOC)c(OCCOC)cc23)c1 [erlotinib]
- tumor growth rate ([1]; 75 mg/kg erlotinib per os daily, 22 days): drastically affected
- tumor doubling time ([1]; 75 mg/kg erlotinib, day 22): 10.1 ± 1.1 days
- tumor growth response ([2]; HEP3B tumors, 75 mg/kg erlotinib per os daily, 22 days): did not respond
- tumor doubling time ([2]; HEP 3B tumors, 75 mg/kg erlotinib, day 22): 7.7 ± 0.84 days
- sensitivity in cellular proliferation test [3]: more sensitive
- sensitivity in clonogenic assay [4]: not sensitive
- number of colonies ([5]; HEP-R1b cells exposed to erlotinib): markedly reduced

Compound: [Cl-].[Li+] [LiCl]
- NTSR1 transcription [6]: upregulated

Compound: Cn1cc(C2=C(c3ccc(Cl)cc3Cl)C(=O)NC2=O)c2ccccc21 [SB216763]
- EGFR expression [7]: increase
- NTSR1 immunolabeling signal ([8]; HEP3B and PLC/PRF5 cells, 1 μM SB 216763 for 6 h): remarkably amplified
- NTSR1 expression [8]: increase
- phosphorylated-EGFR ([9]; SB216763 treatment): increased

Compound: CNC(=O)c1cc(Oc2ccc(NC(=O)Nc3ccc(Cl)c(C(F)(F)F)c3)cc2)ccn1 [sorafenib]
- final tumor size [1, 13]: 400.3±59.9 mm3
- tumor growth rate [1, 13]: inhibited by two fold
- tumor weight ([1]; sorafenib treated group, end of treatment (day 15)): 0.650 ± 0.080 g
- tumor growth rate ([2]; HEP 3B tumors, 30 mg/kg sorafenib per os, 15 days): no influence
- tumor weight versus control ([2]; HEP 3B tumors, sorafenib treated group, end of treatment): approximately equal
- survival [10]: prolong survival
- sensitivity in cellular proliferation test [3]: more sensitive
- sensitivity in clonogenic assay [4]: not sensitive
- number of colonies ([5]; HEP-R1a cells exposed to sorafenib): markedly reduced

Compound: COc1cccc(OC)c1-c1cc(C(=O)NC2(C(=O)O)C3CC4CC(C3)CC2C4)nn1-c1ccnc2cc(Cl)ccc12 (stereo not shown) [SR48692]
- final tumor size ([1]; 1 mg/kg SR 48692 per os): 441.9±39.85 mm^3
- tumor growth rate ([1]; 1 mg/kg SR 48692 per os every day): inhibited by two fold
- tumor growth rate ([2]; HEP 3B tumors, 1 mg/kg SR 48692 per os every day): no influence
- EGFR expression [7]: decreased
- effect of SB216763 on EGFR expression in presence of the NTSR1 antagonist ([7]; combined treatment 1 μM SB216763 and 5 μM SR48692, 48 h): limited
- NTSR1 expression [8]: not altered
- increase of cellular invasion when NTSR1 is upregulated [11]: fully or partially abolished
- SB216763-induced increase of phosphorylated-EGFR ([9]; SR 48692 added to SB216763 treatment): abolished
- decrease of migration speed ([12]; PLC-R1a cells): 27%
- decrease of migration speed ([12]; PLC-R2a cells): 33%
